{"source": "paper PMC10266688", "about": "(PLOS ONE, 2023)", "key": {"[1]": {"assay": "Microsomal stability, human liver microsomes", "assay_type": "in vitro ADME", "settings": "for % Drug Remaining NADPH Neg, Human Liver Microsomes / % Drug Remaining NADPH Pos, Human Liver Microsomes: 10 μM", "description": "An incubation mixture with, and without NADPH-generating system, as well as a neat solution prepared without microsomes and NADPH-generating system was used. […] All reactions were initiated with the addition of Up284. Incubations were performed in glass tubes maintained at 37°C in a shaker bath. At 0, 30, and 60 minutes, 10 μL samples were withdrawn from the reaction mixture, and 0.5 mL of acetonitrile containing internal standard was added to each. Samples were vortex-mixed and subjected to centrifugation for 5 min at 1430 x g. A 10 μL aliquot of the supernatant was injected onto the LC-MS/MS instrument for qualitative analysis using a temperature-controlled autosampling device operating at 5°C."}, "[2]": {"test_system": "cellular DUB enzymes", "assay": "Total cellular DUB activity, Ub-AMC cleavage, SKOV3 cells", "settings": "5 μM, 1 h"}, "[3]": {"assay": "Single administration dose escalation study (MTD, body weight, clinical observations), female CD1 mice", "assay_type": "in vivo", "settings": "for Body weight change, Mean / Body weight change: day 7 vs initial weight; for Body weight change, Mean: group mean", "quoted_text": "Mice were dosed on day 1 and clinical condition recorded at 0.5 h, 2 h, 4 h, 6 h, and days 1–7 (S6 Table).\nGc - general condition observation\nX - treatment with compound or vehicle"}}, "note": "Several values for one entry are separate records, joined by “and”; a condition that tells them apart may be missing. Equal entries are not always repeated."}
{"smiles": "N#Cc1ccc(/C=C2/C(=O)/C(=C/c3ccc(C#N)cc3)C23CCNCC3)cc1", "note": "[Up284]", "values": [{"measurement": "additional degradation in the presence of NADPH, human liver microsomes", "setting": "[1]", "result": "~ 10%"}, {"measurement": "degradation in human liver microsomes without NADPH", "setting": "[1]", "result": "~ 50%"}, {"measurement": "% Drug Remaining NADPH Neg, Human Liver Microsomes", "setting": "[1]; 0 min", "result": 100, "unit": "%"}, {"measurement": "% Drug Remaining NADPH Pos, Human Liver Microsomes", "setting": "[1]; 0 min", "result": 100, "unit": "%"}, {"measurement": "% Drug Remaining NADPH Neg, Human Liver Microsomes", "setting": "[1]; 30 min", "result": 57, "unit": "%"}, {"measurement": "% Drug Remaining NADPH Pos, Human Liver Microsomes", "setting": "[1]; 30 min", "result": 43, "unit": "%"}, {"measurement": "% Drug Remaining NADPH Neg, Human Liver Microsomes", "setting": "[1]; 60 min", "result": 52, "unit": "%"}, {"measurement": "% Drug Remaining NADPH Pos, Human Liver Microsomes", "setting": "[1]; 60 min", "result": 43, "unit": "%"}, {"measurement": "total lysate DUB enzymatic activity (Ub-AMC)", "setting": "[2]", "result": "No reduction"}, {"measurement": "Body weight, Mean", "setting": "[3]; IP 40 mg/kg single dose, day 0, group mean", "result": 24.20, "unit": "g"}, {"measurement": "Body weight", "setting": "[3]; IP 40 mg/kg single dose, day 0, individual mice, 40 mg/kg", "result": "25.6 g and 24.3 g and 22.7 g"}, {"measurement": "Body weight, Mean", "setting": "[3]; IP 40 mg/kg single dose, day 1, group mean", "result": 22.83, "unit": "g"}, {"measurement": "Body weight", "setting": "[3]; IP 40 mg/kg single dose, day 1, individual mice, 40 mg/kg", "result": "23.9 g and 22.7 g and 21.9 g"}, {"measurement": "Body weight, Mean", "setting": "[3]; IP 40 mg/kg single dose, day 2, group mean", "result": 22.97, "unit": "g"}, {"measurement": "Body weight", "setting": "[3]; IP 40 mg/kg single dose, day 2, individual mice, 40 mg/kg", "result": "23.3 g and 22.3 g"}, {"measurement": "Body weight, Mean", "setting": "[3]; IP 40 mg/kg single dose, day 3, group mean", "result": 23.80, "unit": "g"}, {"measurement": "Body weight", "setting": "[3]; IP 40 mg/kg single dose, day 3, individual mice, 40 mg/kg", "result": "24.2 g and 24.5 g and 22.7 g"}, {"measurement": "Body weight, Mean", "setting": "[3]; IP 40 mg/kg single dose, day 4, group mean", "result": 23.87, "unit": "g"}, {"measurement": "Body weight", "setting": "[3]; IP 40 mg/kg single dose, day 4, individual mice, 40 mg/kg", "result": "24.5 g and 24.6 g and 22.5 g"}, {"measurement": "Body weight, Mean", "setting": "[3]; IP 40 mg/kg single dose, day 5, group mean", "result": 24.43, "unit": "g"}, {"measurement": "Body weight", "setting": "[3]; IP 40 mg/kg single dose, day 5, individual mice, 40 mg/kg", "result": "25.0 g and 25.1 g and 23.2 g"}, {"measurement": "Body weight, Mean", "setting": "[3]; IP 40 mg/kg single dose, day 6, group mean", "result": 24.13, "unit": "g"}, {"measurement": "Body weight", "setting": "[3]; IP 40 mg/kg single dose, day 6, individual mice, 40 mg/kg", "result": "25.3 g and 24.6 g and 22.5 g"}, {"measurement": "Body weight, Mean", "setting": "[3]; IP 40 mg/kg single dose, day 7, group mean", "result": 24.83, "unit": "g"}, {"measurement": "Body weight", "setting": "[3]; IP 40 mg/kg single dose, day 7, individual mice, 40 mg/kg", "result": "26.2 g and 24.5 g and 23.8 g"}, {"measurement": "Body weight change, Mean", "setting": "[3]; IP 40 mg/kg single dose", "result": 2.67, "unit": "%"}, {"measurement": "Body weight change", "setting": "[3]; IP 40 mg/kg single dose, individual mice, 40 mg/kg", "result": "2.34% and 0.82% and 4.85%"}, {"measurement": "Clinical observation", "setting": "[3]; IP 40 mg/kg, day 0, 0.5 h, individual mice", "result": "DPEh"}, {"measurement": "Clinical observation", "setting": "[3]; IP 40 mg/kg, day 0, 2 h, individual mice", "result": "HDPEh"}, {"measurement": "Clinical observation", "setting": "[3]; IP 40 mg/kg, day 0, 4 h, individual mice", "result": "HDPEh"}, {"measurement": "Clinical observation", "setting": "[3]; IP 40 mg/kg, day 0, 6 h, individual mice", "result": "DPEh"}, {"measurement": "Clinical observation", "setting": "[3]; IP 40 mg/kg, day 0, time 0, individual mice", "result": 0}, {"measurement": "Clinical observation", "setting": "[3]; IP 40 mg/kg, day 1, individual mice, 40 mg/kg", "result": 0}, {"measurement": "Clinical observation", "setting": "[3]; IP 40 mg/kg, day 2, individual mice", "result": 0}, {"measurement": "Clinical observation", "setting": "[3]; IP 40 mg/kg, day 3, individual mice", "result": 0}, {"measurement": "Clinical observation", "setting": "[3]; IP 40 mg/kg, day 4, individual mice", "result": 0}, {"measurement": "Clinical observation", "setting": "[3]; IP 40 mg/kg, day 5, individual mice", "result": 0}, {"measurement": "Clinical observation", "setting": "[3]; IP 40 mg/kg, day 6, individual mice", "result": 0}, {"measurement": "Clinical observation", "setting": "[3]; IP 40 mg/kg, day 7, individual mice", "result": 0}, {"measurement": "Body weight, Mean", "setting": "[3]; IP 60 mg/kg single dose, day 0, group mean", "result": 24.00, "unit": "g"}, {"measurement": "Body weight", "setting": "[3]; IP 60 mg/kg single dose, day 0, individual mice, 60 mg/kg", "result": "24.4 g and 25.1 g and 22.5 g"}, {"measurement": "Body weight", "setting": "[3]; IP 60 mg/kg single dose, day 1, individual mice", "result": "died"}, {"measurement": "Body weight change, Mean", "setting": "[3]; IP 60 mg/kg single dose", "result": -100.00, "unit": "%"}, {"measurement": "Clinical observation", "setting": "[3]; IP 60 mg/kg, day 0, 0.5 h, individual mice", "result": "DPEh"}, {"measurement": "Clinical observation", "setting": "[3]; IP 60 mg/kg, day 0, 2 h, individual mice", "result": "HDPEh"}, {"measurement": "Clinical observation", "setting": "[3]; IP 60 mg/kg, day 0, 4 h, individual mice", "result": "HDPEh"}, {"measurement": "Clinical observation", "setting": "[3]; IP 60 mg/kg, day 0, 6 h, individual mice", "result": "DPEh"}, {"measurement": "Clinical observation", "setting": "[3]; IP 60 mg/kg, day 0, time 0, individual mice", "result": 0}, {"measurement": "Clinical observation", "setting": "[3]; IP 60 mg/kg, day 1, individual mice", "result": "died"}, {"measurement": "Body weight, Mean", "setting": "[3]; IV 40 mg/kg single dose, day 0, group mean", "result": 24.50, "unit": "g"}, {"measurement": "Body weight", "setting": "[3]; IV 40 mg/kg single dose, day 0, individual mice, 40 mg/kg", "result": "26.2 g and 23.2 g and 24.1 g"}, {"measurement": "Body weight, Mean", "setting": "[3]; IV 40 mg/kg single dose, day 1, group mean", "result": 23.90, "unit": "g"}, {"measurement": "Body weight", "setting": "[3]; IV 40 mg/kg single dose, day 1, individual mice, 40 mg/kg", "result": "25.5 g and 22.6 g and 23.6 g"}, {"measurement": "Body weight, Mean", "setting": "[3]; IV 40 mg/kg single dose, day 2, group mean", "result": 24.07, "unit": "g"}, {"measurement": "Body weight", "setting": "[3]; IV 40 mg/kg single dose, day 2, individual mice, 40 mg/kg", "result": "25.7 g and 22.4 g and 24.1 g"}, {"measurement": "Body weight, Mean", "setting": "[3]; IV 40 mg/kg single dose, day 3, group mean", "result": 25.03, "unit": "g"}, {"measurement": "Body weight", "setting": "[3]; IV 40 mg/kg single dose, day 3, individual mice, 40 mg/kg", "result": "26.5 g and 23.6 g and 25.0 g"}, {"measurement": "Body weight, Mean", "setting": "[3]; IV 40 mg/kg single dose, day 4, group mean", "result": 25.23, "unit": "g"}, {"measurement": "Body weight", "setting": "[3]; IV 40 mg/kg single dose, day 4, individual mice, 40 mg/kg", "result": "27.7 g and 22.9 g and 25.1 g"}, {"measurement": "Body weight, Mean", "setting": "[3]; IV 40 mg/kg single dose, day 5, group mean", "result": 25.17, "unit": "g"}, {"measurement": "Body weight", "setting": "[3]; IV 40 mg/kg single dose, day 5, individual mice, 40 mg/kg", "result": "28.0 g and 23.0 g and 24.5 g"}, {"measurement": "Body weight, Mean", "setting": "[3]; IV 40 mg/kg single dose, day 6, group mean", "result": 24.97, "unit": "g"}, {"measurement": "Body weight", "setting": "[3]; IV 40 mg/kg single dose, day 6, individual mice, 40 mg/kg", "result": "27.2 g and 22.6 g and 25.1 g"}, {"measurement": "Body weight, Mean", "setting": "[3]; IV 40 mg/kg single dose, day 7, group mean", "result": 25.07, "unit": "g"}, {"measurement": "Body weight", "setting": "[3]; IV 40 mg/kg single dose, day 7, individual mice, 40 mg/kg", "result": "27.2 g and 23.2 g and 24.8 g"}, {"measurement": "Body weight change, Mean", "setting": "[3]; IV 40 mg/kg single dose", "result": 2.24, "unit": "%"}, {"measurement": "Body weight change", "setting": "[3]; IV 40 mg/kg single dose, individual mice, 40 mg/kg", "result": "3.82% and 0.00% and 2.90%"}, {"measurement": "Clinical observation", "setting": "[3]; IV 40 mg/kg, day 0, 2 h, individual mice", "result": 0}, {"measurement": "Clinical observation", "setting": "[3]; IV 40 mg/kg, day 0, 4 h, individual mice", "result": 0}, {"measurement": "Clinical observation", "setting": "[3]; IV 40 mg/kg, day 0, 6 h, individual mice", "result": 0}, {"measurement": "Clinical observation", "setting": "[3]; IV 40 mg/kg, day 0, time 0, individual mice", "result": 0}, {"measurement": "Clinical observation", "setting": "[3]; IV 40 mg/kg, day 1, individual mice", "result": 0}, {"measurement": "Clinical observation", "setting": "[3]; IV 40 mg/kg, day 2, individual mice", "result": 0}, {"measurement": "Clinical observation", "setting": "[3]; IV 40 mg/kg, day 3, individual mice", "result": 0}, {"measurement": "Clinical observation", "setting": "[3]; IV 40 mg/kg, day 4, individual mice", "result": 0}, {"measurement": "Clinical observation", "setting": "[3]; IV 40 mg/kg, day 5, individual mice", "result": 0}, {"measurement": "Clinical observation", "setting": "[3]; IV 40 mg/kg, day 6, individual mice", "result": 0}, {"measurement": "Clinical observation", "setting": "[3]; IV 40 mg/kg, day 7, individual mice", "result": 0}, {"measurement": "Body weight, Mean", "setting": "[3]; IV 60 mg/kg single dose, day 0, group mean", "result": 24.43, "unit": "g"}, {"measurement": "Body weight", "setting": "[3]; IV 60 mg/kg single dose, day 0, individual mice, 60 mg/kg", "result": "26.0 g and 22.7 g and 24.6 g"}, {"measurement": "Body weight, Mean", "setting": "[3]; IV 60 mg/kg single dose, day 1, group mean", "result": 24.47, "unit": "g"}, {"measurement": "Body weight", "setting": "[3]; IV 60 mg/kg single dose, day 1, individual mice, 60 mg/kg", "result": "26.7 g and 22.6 g and 24.1 g"}]}
